≈ marks a conversion by molar mass, not a printed value. Calls of active or inactive are those of the source. The calls are words filed in the database; no cut-off is given here.
Assays:
Staphylococcus aureus [1] = experiment: Antibacterial activity against methicillin-resistant Staphylococcus aureus N315 assessed as inhibition of bacterial growth incubated for 24 hrs by broth dilution method; assay type: functional
Escherichia coli [2] = experiment: Antibacterial activity against Escherichia coli ATCC 25922 assessed as inhibition of bacterial growth incubated for 24 hrs by broth dilution method; assay type: functional
Pseudomonas aeruginosa [3] = experiment: Antibacterial activity against Pseudomonas aeruginosa ATCC 9027 assessed as inhibition of bacterial growth incubated for 24 hrs by broth dilution method; assay type: functional
[4] = Hemolytic activity against rabbit blood cells incubated for 1 hr relative to control; assay type: toxicity, cell-based, Oryctolagus cuniculus, Erythrocyte; conditions: rabbit blood cells (erythrocytes)
Klebsiella pneumoniae [5] = experiment: Antibacterial activity against Klebsiella pneumoniae ATCC 10031 assessed as inhibition of bacterial growth incubated for 24 hrs in presence of 140 mM Na+ by broth dilution method; assay type: functional
Staphylococcus aureus [6] = experiment: Antibacterial activity against Staphylococcus aureus ATCC 29213 assessed as inhibition of bacterial growth incubated for 24 hrs in presence of 2.5 mM Ca2+ by broth dilution method; assay type: functional
Klebsiella pneumoniae [7] = experiment: Antibacterial activity against Klebsiella pneumoniae ATCC 10031 assessed as inhibition of bacterial growth incubated for 24 hrs in presence of 2.5 mM Ca2+ by broth dilution method; assay type: functional
Staphylococcus aureus [8] = experiment: Antibacterial activity against methicillin-resistant Staphylococcus aureus NCTC 10442 assessed as inhibition of bacterial growth incubated for 24 hrs in presence of 1 mM Mg2+ by broth dilution method; assay type: functional
Staphylococcus aureus [9] = experiment: Antibacterial activity against Staphylococcus aureus ATCC 29213 assessed as inhibition of bacterial growth incubated for 24 hrs in presence of 4.5 mM K+ by broth dilution method; assay type: functional
Escherichia coli [10] = experiment: Antibacterial activity against Escherichia coli ATCC 25922 assessed as inhibition of bacterial growth incubated for 24 hrs in presence of 4.5 mM K+ by broth dilution method; assay type: functional
Staphylococcus aureus [11] = experiment: Antibacterial activity against methicillin-resistant Staphylococcus aureus NCTC 10442 assessed as inhibition of bacterial growth incubated for 24 hrs in presence of 19 uM Zn2+ by broth dilution method; assay type: functional
[12] = Cytotoxicity against mouse fibroblast NCTC clone 929 cells assessed as viable cells at 3.125 microg/ml incubated for 24 hrs by CCK-8 assay; assay type: toxicity, cell-based; conditions: NCTC clone 929 (L929) fibroblast cells, at 3.125 µg/mL, read-out: Activity
[13] = Cytotoxicity against mouse fibroblast NCTC clone 929 cells assessed as viable cells at 6.25 microg/ml incubated for 24 hrs by CCK-8 assay; assay type: toxicity, cell-based; conditions: NCTC clone 929 (L929) fibroblast cells, at 6.25 µg/mL, read-out: Activity
[14] = Cytotoxicity against mouse fibroblast NCTC clone 929 cells assessed as viable cells at 12.5 microg/ml incubated for 24 hrs by CCK-8 assay; assay type: toxicity, cell-based; conditions: NCTC clone 929 (L929) fibroblast cells, at 12.5 µg/mL, read-out: Activity
[15] = Cytotoxicity against human HepG2 cells assessed as viable cells at […] microg/ml incubated for 24 hrs by CCK-8 assay; assay type: toxicity, cell-based; conditions: dose 1.56 µg/ml, read-out: Activity
[16] = Cytotoxicity against human HepG2 cells assessed as viable cells at 6.25 microg/ml incubated for 24 hrs by CCK-8 assay; assay type: toxicity, cell-based; conditions: at 6.25 µg/mL, read-out: Activity
[17] = Cytotoxicity against human HepG2 cells assessed as viable cells at 25 microg/ml incubated for 24 hrs by CCK-8 assay; assay type: toxicity, cell-based; conditions: at 25 µg/mL, read-out: Activity
Staphylococcus aureus [18] = experiment: Bactericidal activity against methicillin-resistant Staphylococcus aureus NCTC 10442 assessed as bacterial reduction at 8 time of MIC concentration incubated for 0.5 hrs by time-kill assay; assay type: functional
Cell membrane [19] = experiment: Induction of cytoplasmic membrane permeabilization in Escherichia coli ATCC 25922 assessed as disruption of cell membrane integrity measured upto 60 mins by measuring increase in fluorescence intensity at 1 to 8 times of MIC concentration by SYTOX green dye based fluorescence analysis; assay type: cell membranes
Cell membrane [20] = experiment: Induction of outer membrane permeabilization in Pseudomonas aeruginosa ATCC 9027 assessed as increase in fluorescence intensity at 1 to 8 times MIC concentration by NPN-dye based fluorescence analysis; assay type: cell membranes
Lipopolysaccharide (LPS) [21] = experiment: Displacement of BODIPY-TR-cadaverine from Escherichia coli lipopolysaccharide (LPS) assessed as increase in fluorescence intensity by fluorescence spectrophotometric analysis; assay type: subcellular
Lipoteichoic acid [22] = experiment: Displacement of BODIPY-TR-cadaverine from Bacillus subtilis lipoteichoic acid (LTA) assessed as increase in fluorescence intensity at 1 times MIC measured after 30 mins by fluorescence spectrophotometric analysis
Lipopolysaccharide (LPS) [23] = experiment: Displacement of BODIPY-TR-cadaverine from Escherichia coli lipopolysaccharide (LPS) assessed as increase in fluorescence intensity at 1 times MIC measured after 30 mins by fluorescence spectrophotometric analysis; assay type: subcellular
Lipoteichoic acid [24] = experiment: Displacement of BODIPY-TR-cadaverine from Bacillus subtilis lipoteichoic acid (LTA) assessed as increase in fluorescence intensity at 2 times MIC measured after 30 mins by fluorescence spectrophotometric analysis
Staphylococcus aureus [25] = experiment: Bactericidal activity against methicillin-resistant Staphylococcus aureus NCTC 10442 assessed as down regulation of other glycan degradation gene expression at 4 times of MIC concentration measured after 90 mins incubation by RNA sequencing (RNA-seq) study; assay type: functional, organism-based
Escherichia coli [26] = experiment: Bactericidal activity against Escherichia coli ATCC 25922 assessed as down regulation of benzoate degradation gene expression at 4 times of MIC concentration measured after 90 mins incubation by RNA sequencing (RNA-seq) study; assay type: functional, organism-based
Escherichia coli [27] = experiment: Bactericidal activity against Escherichia coli ATCC 25922 assessed as change in cell death associated gene expression by measuring down-regulation of LPS export ABC transporter periplasmic-encoding gene (lptC, D1792_RS12575) gene expression at 4 times of MIC concentration measured after 90 mins incubation by RNA sequencing (RNA-seq) study; assay type: functional, organism-based
Escherichia coli [28] = experiment: Bactericidal activity against Escherichia coli ATCC 25922 assessed as change in cell death associated gene expression by measuring down-regulation of outer membrane lipoprotein-coding gene (slp, D1792_ RS14130; porin, D1792_RS05555) gene expression at 4 times of MIC concentration measured after 90 mins incubation by RNA sequencing (RNA-seq) study; assay type: functional, organism-based
Staphylococcus aureus [29] = experiment: Bactericidal activity against methicillin-resistant Staphylococcus aureus NCTC 10442 assessed as change in metabolic stress associated gene expression by measuring down-regulation of glucosaminidase domain-containing protein (atl, DX983_RS02250) gene expression at 4 times of MIC concentration measured after 90 mins incubation by RNA sequencing (RNA-seq) study; assay type: functional, organism-based; conditions: NTCC 10442
Escherichia coli [30] = experiment: Bactericidal activity against Escherichia coli ATCC 25922 assessed as change in metabolic stress associated gene expression by measuring down-regulation of gale (DX983_RS06370) gene expression at 4 times of MIC concentration measured after 90 mins incubation; assay type: functional, organism-based
Pseudomonas aeruginosa [31] = experiment: In vivo antibacterial activity against Pseudomonas aeruginosa ATCC 9027 infected C57BL6 mouse corneal infection model assessed as reduction in bacterial burden at 3 mg/ml, TOP 4 times in a day for 2 consecutive days; assay type: functional; conditions: time 2 day
[32] = Toxicity in C57BL6 mouse assessed as signs of toxicity treated in eyeballs 4 times in a day for 3 consecutive days; conditions: in vivo, topical_or_ocular

## C=C(C)[C@@H]1CCC(C)=C[C@H]1c1c(OCCCNC(=N)N)cc(CCCCC)cc1OCCCNC(=N)N
Staphylococcus aureus [1]
  MIC: 0.39 µg/mL (≈ 0.761 µM)
Escherichia coli [2]
  MIC: 3.12 µg/mL (≈ 6.09 µM)
Pseudomonas aeruginosa [3]
  MIC: 6.25 µg/mL (≈ 12.2 µM)
[4]
  HC50 at 1 h: > 200 µg/mL
Klebsiella pneumoniae [5]
  MIC: 3.12 µg/mL
Staphylococcus aureus [6]
  MIC: 1.56 µg/mL
Klebsiella pneumoniae [7]
  MIC: 6.25 µg/mL
Staphylococcus aureus [8]
  MIC: 0.39 µg/mL
Staphylococcus aureus [9]
  MIC: 0.78 µg/mL
Escherichia coli [10]
  MIC: 1.56 µg/mL
Staphylococcus aureus [11]
  MIC: 0.39 µg/mL
[12]
  viability at 24 h, 3.125 microg/ml: 92.3%
[13]
  viability at 24 h, 6.25 microg/ml: 86.2%
[14]
  viability at 24 h, 12.5 microg/ml: 80.4%
[15]
  viability at 24 h, 1.56 microg/ml: 113%
[16]
  viability at 24 h, 6.25 microg/ml: 91.3%
[17]
  viability at 24 h, 25 microg/ml: 92.9%
Staphylococcus aureus [18]
  Activity: 3 log10FFU/ml
Cell membrane [19]
  Activity: Active
Cell membrane [20]
  Activity: Dose-Dependent Effect
Lipopolysaccharide (LPS) [21]
  Activity: Dose-Dependent Effect
Lipoteichoic acid [22]
  Activity: 11.2%
Lipopolysaccharide (LPS) [23]
  Activity: 27.7%
Lipoteichoic acid [24]
  Activity: 19.8%
Staphylococcus aureus [25]
  Activity: Active
Escherichia coli [26]
  Activity: Active
Escherichia coli [27]
  Activity: Active
Escherichia coli [28]
  Activity: Active
Staphylococcus aureus [29]
  Activity: Active
Escherichia coli [30]
  Activity: Active
Pseudomonas aeruginosa [31]
  Activity: 6.41 log10FFU/ml
[32]
  Activity: Non-Toxic

— ChEMBL document CHEMBL5543084, “Development of cannabidiol derivatives as potent broad-spectrum antibacterial agents with membrane-disruptive mechanism” (Eur J Med Chem, 2024)
